Patent publication US20150224089A1, “COMBINATIONS OF IKKi/TBK1 INHIBITORS WITH BETA ADRENERGIC AGONISTS OR SYMPATHETIC NERVOUS SYSTEM ACTIVATORS” (THE REGENTS OF THE UNIVERSITY OF MICHIGAN, priority 2014, published 2015)
“Also recorded” adds a separate entry of the source.

Columns and labels:
3T3-L1 adipocytes [1] = test: cAMP levels in 3T3-L1 adipocytes; format: cell-based
Procedure: (§1) (A) Glycerol release from 3T3-L1 adipocytes treated with or without different concentrations of TNFα as indicated for 24 hr followed by treatment with or without 10 μM ISO or 50 μM FSK. (B) cAMP levels from 3T3-L1 adipocytes treated with or without 100 ng/ml TNFα for 24 hr followed by treatment with or without 10 μM ISO or 50 μM FSK in the presence or absence of pretreatment of 50 μM Amlexanox (Am). (C) cAMP levels from 3T3-L1 adipocytes treated with or without 100 ng/ml TNFα for 24 hr followed by treatment with or without 50 μM FSK in the presence or absence of pretreatment of 1 μM CAY10576 (CAY). (D) Immunoblots of whole cell lysates from 3T3-L1 adipocytes treated with or without different concentrations of TNFα as same as FIG. 2A for 24 hr followed by treatment with or without 10 μM ISO or 50 μM FSK. Results were replicated in multiple experiments. ‘[’ indicates total HSL. ‘n.s.’ represents non-specific band. Arrow indicates CGI-58. (E) Immunoblots of whole cell lysates from 3T3-L1 adipocytes treated with or without 50 ng/ml TNFα or 100 μg/ml poly (I:C) for 24 hr followed by treatment with or without 10 μM ISO for 15 min in the presence or absence of pretreatment with increasing concentrations (0, 10, 50, and 200 μM) of amlexanox for 30 min.
(A) cAMP levels from 3T3-L1 adipocytes expressing empty vector, Flag-IKKε, or Flag-TBK1 treated with or without 50 μM FSK, 250 μM IBMX, or together for 15 min. (B) cAMP levels from 3T3-L1 adipocytes expressing empty vector, Flag-IKKε, or Flag-TBK1 treated with or without 10 μM ISO or 50 μM FSK together with or without 10 μM Zardaverine (Zarda) for 15 min. (C) 32P phospho-image of in vitro kinase reaction using either immunoprecipitated HA-PDE3B from HEK293T cells or 1 μg MBP (myelin basic protein) as a substrate with recombinant kinases as indicated. (D) Immunoblots of immunoprecipitation with anti-HA antibodies followed by treatment with or without CIP (top panel) and whole cell lysates (bottom panel) from Cos-1 cells co-expressing HA-PDE3B with Flag-IKKε/TBK1 or Flag-IKKε/TBK1 K38A. D.E. stands for dark exposure and L.E. stands for light exposure. (E) Immunoblots of GST-14-3-3 pulldown from HEK293T cells co-expressing HA-PDE3B with Flag-TBK1 or Flag-TBK1 K38A.
Obesity is accompanied by infiltration of proinflammatory macrophages into adipose tissue; these cells secrete inflammatory cytokines, such as TNFα, which generate insulin resistance by stimulating catabolic pathways (Hotamisligil, 2006; Lumeng et al., 2007; Ye and Keller, 2010; Ouchi et al., 2011; herein incorporated by reference in their entireties). Although TNFα is known to increase lipolysis in adipocytes (Zhang et al., 2002; Souza et al., 2003; Green et al., 2004; Plomgaard et al., 2008; herein incorporated by reference in their entireties), there is also evidence of a counterinflammatory response in obesity that may serve to repress energy expenditure (Gregor and Hotamisligil, 2011; Saltiel, 2012; Calay and Hotamisligil, 2013; Reilly et al., 2013; herein incorporated by reference in their entireties). Experiments were conducted during development of embodiments of the present invention using TNFα to model the inflammatory milieu of obese adipose tissue in cell culture to determine whether the cytokine might also regulate β-adrenergic signaling in this context. While short-term treatment with TNFα augmented the increase in cAMP produced by forskolin treatment, this effect declined after 12 hr. […] Thus, the catabolic effects of the proinflammatory cytokine TNFα in adipocytes are transient and followed by an inhibitory phase.
Treatment of 3T3-L1 adipocytes with TNFα for 24 hr induced the expression of IKKε and increased TBK1 phosphorylation at the active site in a manner that was dependent on the activity of IKKβ and the NFκB pathway (Reilly et al., 2013; herein incorporated by reference in its entirety). […]

3T3-L1 adipocytes [2] = test: Immunoblots of β-adrenergic/PKA signaling (HSL, perilipin, PKA substrate, p38 phosphorylation) in 3T3-L1 adipocytes; format: cell-based
Procedure: as §1, with “Results were replicated in multiple experiments. ‘[’ indicates total HSL. ‘n.s.’ represents non-specific band.” left out
Experiments were conducted during development of embodiments of the present invention to determine whether the repression of β-adrenergic sensitivity produced by longer-term treatment with TNFα is due to increased activity of the noncanonical IKKs.

Compound	rescue of TNFα-decreased isoproterenol- and forskolin-stimulated cAMP production (3T3-L1 adipocytes [1]; preincubation with 50 μM amlexanox, 100 ng/ml TNFα 24 hr, 10 μM ISO or 50 μM FSK)	effect on TNFα inhibition of isoproterenol-stimulated β-adrenergic signaling (phospho-PKA substrate, phospho-HSL, phospho-perilipin) (3T3-L1 adipocytes [2]; amlexanox pretreatment 0, 10, 50, 200 μM for 30 min, 50 ng/ml TNFα 24 hr, 10 μM ISO 15 min)	phosphorylation of p38 in response to isoproterenol (3T3-L1 adipocytes [2]; amlexanox pretreatment 0, 10, 50, 200 μM, dose-dependent)	effect on Poly (I:C) inhibition of sensitivity to isoproterenol stimulation (3T3-L1 adipocytes [2]; amlexanox pretreatment, 100 μg/ml poly (I:C) 24 hr, less than with TNFα)	isoproterenol- and forskolin-stimulated cAMP production (3T3-L1 adipocytes [1]; TNFα for 24 hr (100 ng/ml), 10 μM ISO or 50 μM FSK)	increase in cAMP produced by forskolin treatment (3T3-L1 adipocytes [1]; short-term treatment with TNFα)	isoproterenol-stimulated β-adrenergic signaling (phosphorylation of HSL, perilipin, PKA substrate motif proteins) (3T3-L1 adipocytes [2]; TNFα for 24 hr, 10 μM ISO)
CC(C)c1ccc2oc3nc(N)c(C(=O)O)cc3c(=O)c2c1 [amlexanox, 2-amino-7-isopropyl-1-azaxanthone-3-carboxylic acid; 2-amino-7-isopropyl-5-oxo-5H-chromeno[2,3-b]pyridine-3-carboxylic acid]	largely rescued	blocked the inhibitory effect of TNFα	dramatically augmented	partially restored			
TNFα					inhibited the production of the second messenger; also recorded: decreased isoproterenol- and forskolin-stimulated cAMP production	augmented	decreased
